From ChEMBL document CHEMBL3399940, “Synthesis and antimalarial evaluation of prodrugs of novel fosmidomycin analogues” (Bioorg Med Chem Lett, 2015)

Assays:
[1] = Cytotoxicity against human HepG2A16 cells after 24 hrs by MTT assay; format: cell-based; settings: read-out: LD50
[2] = test system: Plasmodium falciparum; test: Antimalarial activity against chloroquine and mefloquine-resistant Plasmodium falciparum Dd2 after 48 hrs by SYBR Green I assay; format: functional
[3] = Plasmodium falciparum, Dd2, 48 h, read-out: IC50

Row | Compound | CC50 at 24 h [1] | IC50 [2] | IC50 [2, 3]
1 | CCOP(=O)(OCC)C1CCN(OCc2ccccc2)C(=O)C1 (centres undefined) | 25.6 µM | Not Active | 
2 | O[C@@H](c1cc(C(F)(F)F)nc2c(C(F)(F)F)cccc12)[C@H]1CCCCN1 [(S,R)-MEFLOQUINE] |  |  | 0.092 µM
3 | CC(C)(C)C(=O)OCOP(=O)(OCOC(=O)C(C)(C)C)C1CCCN(O)C(=O)C1 (centres undefined) | 20.1 µM |  | 2.24 µM
4 | CC(=O)N(O)CCCP(=O)(O)O |  |  | 0.893 µM
5 | CC(=O)N(O)CCCP(=O)(OCOC(=O)C(C)(C)C)OCOC(=O)C(C)(C)C |  |  | 0.272 µM
6 | CC(C)(C)C(=O)OCOP(=O)(OCOC(=O)C(C)(C)C)C1CCN(O)C(=O)C1 (centres undefined) | 25.6 µM |  | 0.0274 µM
